What was measured:
[1] = molecular target: T1, hERG potassium channel (Homo sapiens, UniProt Q12809); experiment: biochemical; conditions: hERG / IC50 (nM)
[2] = molecular target: T1, hERG potassium channel; experiment: in vitro; conditions: % inhibition
[3] = molecular target: T1, hERG potassium channel; experiment: biochemical; conditions: hERG / Ki (nM)
[4] = molecular target: T1, hERG potassium channel; experiment: radioligand competition binding, membranes

T1 sequence (Q12809 whole entry): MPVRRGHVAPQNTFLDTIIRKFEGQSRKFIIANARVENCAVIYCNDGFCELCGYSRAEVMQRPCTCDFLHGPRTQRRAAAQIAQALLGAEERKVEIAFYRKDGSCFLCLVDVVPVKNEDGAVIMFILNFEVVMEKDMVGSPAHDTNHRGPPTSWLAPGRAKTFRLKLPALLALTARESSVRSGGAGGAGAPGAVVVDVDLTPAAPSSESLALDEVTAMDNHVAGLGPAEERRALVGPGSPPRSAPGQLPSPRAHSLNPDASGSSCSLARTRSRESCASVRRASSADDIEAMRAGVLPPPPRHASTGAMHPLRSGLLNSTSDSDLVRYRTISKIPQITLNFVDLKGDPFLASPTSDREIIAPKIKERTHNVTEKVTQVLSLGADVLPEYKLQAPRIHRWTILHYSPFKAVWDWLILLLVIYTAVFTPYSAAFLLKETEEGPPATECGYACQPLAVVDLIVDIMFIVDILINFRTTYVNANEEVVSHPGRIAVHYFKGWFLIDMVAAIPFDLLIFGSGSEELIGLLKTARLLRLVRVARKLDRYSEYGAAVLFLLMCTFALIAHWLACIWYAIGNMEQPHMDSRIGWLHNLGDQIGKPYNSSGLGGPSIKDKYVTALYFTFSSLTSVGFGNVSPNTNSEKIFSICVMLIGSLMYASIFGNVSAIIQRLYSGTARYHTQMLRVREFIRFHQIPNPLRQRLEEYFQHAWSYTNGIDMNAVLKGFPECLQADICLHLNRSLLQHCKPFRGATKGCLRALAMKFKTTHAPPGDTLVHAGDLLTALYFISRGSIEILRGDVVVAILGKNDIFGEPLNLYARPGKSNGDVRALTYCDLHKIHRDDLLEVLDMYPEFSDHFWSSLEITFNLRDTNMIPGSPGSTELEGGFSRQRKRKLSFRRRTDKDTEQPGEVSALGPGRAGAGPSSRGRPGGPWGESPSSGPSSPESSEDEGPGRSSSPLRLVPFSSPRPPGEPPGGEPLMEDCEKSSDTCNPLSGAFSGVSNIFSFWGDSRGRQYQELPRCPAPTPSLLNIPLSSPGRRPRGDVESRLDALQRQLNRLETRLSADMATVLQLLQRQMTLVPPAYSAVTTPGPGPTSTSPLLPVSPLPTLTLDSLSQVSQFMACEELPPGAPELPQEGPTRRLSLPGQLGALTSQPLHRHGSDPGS

Row | SMILES | IC50 ([1]; Synthesis=Enamine) | inhibition at 10 µM [2] | Ki ([3]; Synthesis=Enamine) | IC50 ([1]; Synthesis=NBI) | Ki [4] | Ki ([3]; Synthesis=NBI)
1 | CN(C)CCCN(Cc1ccc(Cl)c(Cl)c1)c1ncc(Cl)cc1[N+](=O)[O-] [s_27____7425384____7556080] | 1030 nM | 78.8% | 729 nM |  |  | 
2 | CN(C)CCCc1nc2ccccc2n1Cc1ccccc1 [compound 5, GMD_18471] |  | 88.9% |  | 565 nM | 400 nM | 
3 | CN(C)CCn1c(-c2ccccc2Cl)nc2ccccc21 [s_60____1081314____90809] | 7050 nM | 2.2% | 4990 nM |  |  | 
4 | CN(C)CCCN(Cc1ccc(Cl)c(Cl)c1)c1ncnc2ccn(C)c12 [m_27____7425384____18313558] | 854 nM | 75.9% | 604 nM |  |  | 
5 | CN(C)CCn1nc(-c2ccccc2Cl)c2ccccc2c1=O [GMD_12767] |  | 84.2% |  | 1590 nM |  | 1120 nM
6 | CN(C)CCCn1nc(-c2cncc(Cl)c2)c2ccccc2c1=O [GMD_27933] |  | 80.4% |  | 968 nM |  | 684 nM
7 | CN(C)CCN(Cc1ccccc1F)Cc1c(Cl)ccc2cccnc12 [s_270004____10205940____8625260] | 82.5 nM | 88.9% | 58.3 nM |  |  | 
8 | CN(C)CCCn1nc(-c2cccc(Cl)c2)c2ccccc2c1=O [GMD_9433] |  | 92.5% |  | 721 nM |  | 510 nM
9 | CN(C)CCCn1nc(-c2cccnc2)c2ccccc2c1=O [GMD_11677] |  | 31.1% |  | 11100 nM |  | 7870 nM
10 | CN(C)CCCN(CCCN(C)C)c1ccc2c(Br)ccc(Cl)c2n1 [s_27____6492506____8281582] | 3250 nM | 69% | 2300 nM |  |  | 
11 | CN(C)CCCn1nc(-c2cccs2)c2ccccc2c1=O [s_49____14518112____101877] | 1340 nM | 81.7% |  |  |  | 
12 | CN(C)CCN(Cc1ccccc1)c1nc2cccc(F)c2s1 [s_27____7100858____10689034] | 2240 nM | 83% |  |  |  | 
13 | CN(C)CCN(Cc1cccc(Cl)c1)c1cncc(Cl)n1 [s_27____7100894____215633] | 1660 nM | 78.1% | 1180 nM |  |  | 
14 | CN(C)CCCn1nc(-c2ccc(Cl)cc2)c2ccccc2c1=O [compound 3, s_49__14518112__88929] |  |  |  |  | 643 nM | 
15 | CN(C)CCN(Cc1ccccc1)Cc1nc2ccccc2n1C [s_270004____10205888____7548808] | 1480 nM | 75% | 1050 nM |  |  | 
16 | CN(C)CCCn1nc(-c2ccc(Cl)cc2)c2ccccc2c1=O [s_49____14518112____88929] | 909 nM |  |  |  |  | 
17 | CSc1nccc(N(CCCN(C)C)Cc2ccc(Cl)c(Cl)c2)n1 [s_27____7425384____15607934] | 1090 nM | 86.6% | 772 nM |  |  | 
18 | CN(C)CCCn1nc(-c2cccs2)c2ccccc2c1=O [GMD_12264] |  |  |  | 1890 nM |  | 1340 nM
19 | CN(C)CCN(C)c1nc2ccccc2n1Cc1ccccc1F [GMD_15306] |  | 40.7% |  | 3040 nM |  | 2150 nM
20 | CN(C)CCN(Cc1ccccc1)c1nc2cccc(F)c2s1 [compound 4, s_27__7100858__10689034] |  |  |  |  | 1590 nM | 
21 | CN(C)CCCn1nc(-c2ccccn2)c2ccccc2c1=O [GMD_13497] |  | 33.6% |  | 6070 nM |  | 4300 nM
22 | CN(C)CCN(Cc1cccc(F)c1)Cc1c(Cl)ccc2cccnc12 [s_270004____10206024____8625260] | 156 nM | 97% | 110 nM |  |  | 
23 | CN(C)CCn1nc(-c2cccc(Cl)c2)c2ccccc2c1=O [GMD_13630] |  | 79.1% |  | 2420 nM |  | 1710 nM
24 | CCc1csc(N(CCCN(C)C)Cc2ccc(Cl)c(Cl)c2)n1 [s_27____7425384____12641810] | 1070 nM | 86.2% | 757 nM |  |  | 
25 | CN(C)CCN(Cc1cccs1)c1nccc(F)c1Cl [s_27____7100914____15703356] | 7320 nM | 55.7% | 5180 nM |  |  | 
26 | CN(C)CCN(Cc1ccccc1F)C(=O)c1csc2ccccc12 [s_527____7348186____205300] | 7040 nM | 55.6% | 4980 nM |  |  | 
27 | CN(C)CCN(Cc1cccc(Cl)c1)c1ncncc1Cl [s_27____7100894____9139880] | 717 nM | 91.6% | 507 nM |  |  | 

Row | SMILES | IC50 ([1]; Synthesis=Enamine) | inhibition at 10 µM [2] | Ki ([3]; Synthesis=Enamine) | IC50 ([1]; Synthesis=NBI) | Ki [4] | Ki ([3]; Synthesis=NBI)
28 | CN(C)CCN(Cc1ccccc1F)C(=O)N1CCCc2c(Cl)ccnc21 [s_272164____17323936____17325014] | 425 nM | 90.6% | 300 nM |  |  | 
29 | CN(C)CCn1nc(-c2ccc(Cl)cc2)c2ccccc2c1=O [NBI1099469] |  | 71.7% |  | 1740 nM |  | 1230 nM
30 | CN(C)CCN(Cc1nccn1C)c1nc2cc(Cl)ccc2s1 [s_27____16636988____14057938] |  | 89.1% |  |  |  | 
31 | CN(C)CCCN(Cc1ccc(Cl)c(Cl)c1)c1nccc2cccnc12 [s_27____7425384____16803680] | 91.8 nM | 96.3% | 64.9 nM |  |  | 
32 | CSc1ncccc1-c1nn(CCCN(C)C)c(=O)c2ccccc12 [NBI1100649] |  | 28.2% |  | 8700 nM |  | 6150 nM
33 | CN(C)CCc1nc2ccccc2n1CCc1ccccc1 [GMD_12737] |  | 45.4% |  |  |  | 
34 | CN(C)CCN(Cc1ccc(F)cc1F)C(=O)c1cc(Br)ncc1Cl [s_11____4836304____10207328] |  | 28.7% |  |  |  | 
35 | CN(C)CCCn1nc(-c2ccc(Cl)cc2)c2ccccc2c1=O [GMD_12503] |  | 72.4% |  | 1220 nM |  | 866 nM
36 | CN(C)CCn1nc(-c2ccccc2)c2ccccc2c1=O [GMD_24043] |  | 60.1% |  |  |  | 
37 | CN(C)CCCn1nc(-c2ccc(F)cc2)c2ccccc2c1=O [compound 1, s_49__14518112__1114614] |  |  |  |  | 1490 nM | 
38 | CN(C)CCCn1nc(-c2cccs2)c2ccccc2c1=O [compound 2, s_49__14518112__101877] |  |  |  |  | 946 nM | 
39 | CN(C)CCCn1nc(-c2ccc(F)cc2)c2ccccc2c1=O [s_49____14518112____1114614] | 2100 nM | 80.8% |  |  |  | 
40 | CN(C)CCN(Cc1cccc(Cl)c1)c1nccc2cnccc12 [s_27____7100894____16733638] | 119 nM | 99.7% | 84 nM |  |  | 
41 | CN(C)CCN(Cc1cccs1)c1ccncc1Cl [s_27____7100914____16711384] | 8570 nM | 49.5% | 6060 nM |  |  | 
42 | CN(C)CCc1nc2ccccc2n1Cc1ccccc1Cl [GMD_7286] |  | 51.3% |  |  |  | 
43 | CN(C)CCCN(Cc1ccc(Cl)c(Cl)c1)C(=O)c1nccc2ncccc12 [s_527____1500312____14775532] |  | 40% |  |  |  | 
44 | CN(C)CCN(Cc1ccccc1F)C(=O)c1cccc2ncccc12 [s_527____7348186____237975] |  | 1.57% |  |  |  | 
45 | CN(C)CCN(CCO)Cc1csc(-c2c(Cl)cccc2Cl)n1 [s_2230____15141024____14479640] |  | 9.6% |  |  |  | 
46 | Cc1ccccc1Cn1c(CCN(C)C)nc2ccccc21 [GMD_8492] |  | 9.23% |  |  |  | 
47 | CN(C)CCCn1nc(-c2ccccc2)c2ccccc2c1=O [s_49____14518112____88928] | 3710 nM |  | 2620 nM |  |  | 
48 | CN(C)CCCn1nc(-c2ccccc2)c2ccccc2c1=O [GMD_14496] |  | 54.2% |  | 3580 nM |  | 2530 nM
49 | CN(C)CCN(Cc1cccc(F)c1)C(=O)CSc1nc2ccccc2n1C [s_22____2224108____339636] |  | 75.6% |  |  |  | 
50 | CN(C)CCN(Cc1ccccc1F)C(=O)N1CCSc2ncccc21 [s_272164____9389146____17325014] |  | 37.3% |  |  |  | 
51 | Cc1cccc2c(C(=O)N(CCN(C)C)Cc3ccccc3F)nccc12 [s_527____7348186____14188826] |  | 52.7% |  |  |  | 
52 | CN(C)CCCn1nc(-c2ccncc2)c2ccccc2c1=O [NBI1099478] |  | 23.4% |  |  |  | 
53 | COc1cc(C(=O)N(CCN(C)C)c2ccccc2)c2ncccc2c1 [s_11____2264406____15769708] |  | 22.5% |  |  |  | 

— publication doi:10.1101/2023.02.14.528391v1 (biorxiv, 2023)
